SMILES strings stand for the structures.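 Dose response: 5 concentrations. Exposure: 48 h. Format: 96-well plates. Endpoint: linear interpolation; highest concentration if not reached. TGI is the concentration that stops growth completely.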 Some results are limits rather than exact numbers.

In the first assay the test system is 786-0 renal. Description: growth of human tumour cells (NCI), 48 h.
`CCOC(=O)CC(=O)ON(C)C(C)=O` displayed a TGI above 100 µM.
As for `CC(C)OP(=O)(OC(C)C)C(=NCCN=C(NNc1ccc([N+](=O)[O-])cc1)P(=O)(OC(C)C)OC(C)C)NNc1ccc([N+](=O)[O-])cc1`, the TGI is above 100 µM.
On the same count and under the same terms, then `Cn1c2ccccc2c2cc(-c3ccccc3)c3c(c21)C(=O)c1ccccc1C3=O`, with 35.7 µM.
For `CN(C)c1ccc(/C=C(\NC(=O)c2ccccc2)c2nc3ncncc3[nH]2)cc1`, the TGI is above 100 µM.

A further assay has as its system A498 renal. Description: growth of human tumour cells (NCI), 48 h.
`CCOC(=O)CC(=O)ON(C)C(C)=O` gave a TGI above 100 µM.
The compound `CC(C)OP(=O)(OC(C)C)C(=NCCN=C(NNc1ccc([N+](=O)[O-])cc1)P(=O)(OC(C)C)OC(C)C)NNc1ccc([N+](=O)[O-])cc1` gave a TGI of 60.3 µM.
On the same count and under the same terms, next, `Cn1c2ccccc2c2cc(-c3ccccc3)c3c(c21)C(=O)c1ccccc1C3=O`: above 100 µM.

The test system of another assay is A549 NSCLC. Description: growth of human tumour cells (NCI), 48 h.
`CCOC(=O)CC(=O)ON(C)C(C)=O` registered a TGI above 100 µM.
Same read-out and setting: next, `CC(C)OP(=O)(OC(C)C)C(=NCCN=C(NNc1ccc([N+](=O)[O-])cc1)P(=O)(OC(C)C)OC(C)C)NNc1ccc([N+](=O)[O-])cc1`: above 100 µM.
On the same count and under the same terms, then `Cn1c2ccccc2c2cc(-c3ccccc3)c3c(c21)C(=O)c1ccccc1C3=O`, with 79.1 µM.
In the case of `CN(C)c1ccc(/C=C(\NC(=O)c2ccccc2)c2nc3ncncc3[nH]2)cc1`, the TGI was above 100 µM.

A further assay relates to ACHN renal. Description: growth of human tumour cells (NCI), 48 h.
Compound `CCOC(=O)CC(=O)ON(C)C(C)=O` displayed a TGI above 100 µM.
Compound `CC(C)OP(=O)(OC(C)C)C(=NCCN=C(NNc1ccc([N+](=O)[O-])cc1)P(=O)(OC(C)C)OC(C)C)NNc1ccc([N+](=O)[O-])cc1` registered a TGI of 66.5 µM.
Same read-out and setting: then `CN(C)c1ccc(/C=C(\NC(=O)c2ccccc2)c2nc3ncncc3[nH]2)cc1`, with above 100 µM.

The test system of the next assay is CAKI-1 renal. Description: growth of human tumour cells (NCI), 48 h.
For the compound `CCOC(=O)CC(=O)ON(C)C(C)=O`, the TGI is above 100 µM.
The same measure, in the same setting: then `CC(C)OP(=O)(OC(C)C)C(=NCCN=C(NNc1ccc([N+](=O)[O-])cc1)P(=O)(OC(C)C)OC(C)C)NNc1ccc([N+](=O)[O-])cc1`, with 25.4 µM; and `Cn1c2ccccc2c2cc(-c3ccccc3)c3c(c21)C(=O)c1ccccc1C3=O`, with above 100 µM.
As for `CN(C)c1ccc(/C=C(\NC(=O)c2ccccc2)c2nc3ncncc3[nH]2)cc1`, the TGI was above 100 µM.

A further assay deals with CCRF-CEM leukemia. Description: growth of human tumour cells (NCI), 48 h.
As for `CCOC(=O)CC(=O)ON(C)C(C)=O`, the TGI is above 100 µM.
Still for that read-out and setting: next, `CC(C)OP(=O)(OC(C)C)C(=NCCN=C(NNc1ccc([N+](=O)[O-])cc1)P(=O)(OC(C)C)OC(C)C)NNc1ccc([N+](=O)[O-])cc1`: above 100 µM; `Cn1c2ccccc2c2cc(-c3ccccc3)c3c(c21)C(=O)c1ccccc1C3=O`: 33 µM; `CN(C)c1ccc(/C=C(\NC(=O)c2ccccc2)c2nc3ncncc3[nH]2)cc1`: above 100 µM.

A further assay deals with COLO 205 colon. Description: growth of human tumour cells (NCI), 48 h.
Turning to `CCOC(=O)CC(=O)ON(C)C(C)=O`, the TGI is above 100 µM.
The same measure, in the same setting: then `CC(C)OP(=O)(OC(C)C)C(=NCCN=C(NNc1ccc([N+](=O)[O-])cc1)P(=O)(OC(C)C)OC(C)C)NNc1ccc([N+](=O)[O-])cc1`, with 29.6 µM; and `Cn1c2ccccc2c2cc(-c3ccccc3)c3c(c21)C(=O)c1ccccc1C3=O`, with 94.3 µM; and `CN(C)c1ccc(/C=C(\NC(=O)c2ccccc2)c2nc3ncncc3[nH]2)cc1`, with above 100 µM.

Another assay has as its system DLD-1 colon. Description: growth of human tumour cells (NCI), 48 h.
In turn, `CCOC(=O)CC(=O)ON(C)C(C)=O` registered a TGI above 100 µM.
Still for that read-out and setting: then `CC(C)OP(=O)(OC(C)C)C(=NCCN=C(NNc1ccc([N+](=O)[O-])cc1)P(=O)(OC(C)C)OC(C)C)NNc1ccc([N+](=O)[O-])cc1`, with above 100 µM.
Still for that read-out and setting: next, `Cn1c2ccccc2c2cc(-c3ccccc3)c3c(c21)C(=O)c1ccccc1C3=O`: 31 µM.
`CN(C)c1ccc(/C=C(\NC(=O)c2ccccc2)c2nc3ncncc3[nH]2)cc1` yielded a TGI above 100 µM.

The test system of another assay is DMS 114 small cell lung. Description: growth of human tumour cells (NCI), 48 h.
For `CCOC(=O)CC(=O)ON(C)C(C)=O`, the TGI was above 100 µM.
Same read-out and setting: then `CC(C)OP(=O)(OC(C)C)C(=NCCN=C(NNc1ccc([N+](=O)[O-])cc1)P(=O)(OC(C)C)OC(C)C)NNc1ccc([N+](=O)[O-])cc1`, with above 100 µM; and `Cn1c2ccccc2c2cc(-c3ccccc3)c3c(c21)C(=O)c1ccccc1C3=O`, with 33.6 µM; and `CN(C)c1ccc(/C=C(\NC(=O)c2ccccc2)c2nc3ncncc3[nH]2)cc1`, with above 100 µM.

In the next assay the test system is DMS 273 small cell lung. Description: growth of human tumour cells (NCI), 48 h.
As for `CC(C)OP(=O)(OC(C)C)C(=NCCN=C(NNc1ccc([N+](=O)[O-])cc1)P(=O)(OC(C)C)OC(C)C)NNc1ccc([N+](=O)[O-])cc1`, the TGI is above 100 µM.
Still for that read-out and setting: next, `Cn1c2ccccc2c2cc(-c3ccccc3)c3c(c21)C(=O)c1ccccc1C3=O`: 44.9 µM.

The subject of a further assay is EKVX NSCLC. Description: growth of human tumour cells (NCI), 48 h.
The compound `CCOC(=O)CC(=O)ON(C)C(C)=O` showed a TGI above 100 µM.
Still for that read-out and setting: next, `CC(C)OP(=O)(OC(C)C)C(=NCCN=C(NNc1ccc([N+](=O)[O-])cc1)P(=O)(OC(C)C)OC(C)C)NNc1ccc([N+](=O)[O-])cc1`: above 100 µM; `CN(C)c1ccc(/C=C(\NC(=O)c2ccccc2)c2nc3ncncc3[nH]2)cc1`: above 100 µM.

The test system of another assay is HCC-2998 colon. Description: growth of human tumour cells (NCI), 48 h.
Turning to `CCOC(=O)CC(=O)ON(C)C(C)=O`, the TGI was above 100 µM.
On the same count and under the same terms, then `CC(C)OP(=O)(OC(C)C)C(=NCCN=C(NNc1ccc([N+](=O)[O-])cc1)P(=O)(OC(C)C)OC(C)C)NNc1ccc([N+](=O)[O-])cc1`, with above 100 µM.
For the compound `Cn1c2ccccc2c2cc(-c3ccccc3)c3c(c21)C(=O)c1ccccc1C3=O`, the TGI was above 100 µM.
On the same count and under the same terms, then `CN(C)c1ccc(/C=C(\NC(=O)c2ccccc2)c2nc3ncncc3[nH]2)cc1`, with above 100 µM.

The subject of another assay is HCT-116 colon. Description: growth of human tumour cells (NCI), 48 h.
`CCOC(=O)CC(=O)ON(C)C(C)=O` yielded a TGI above 100 µM.
Still for that read-out and setting: then `CC(C)OP(=O)(OC(C)C)C(=NCCN=C(NNc1ccc([N+](=O)[O-])cc1)P(=O)(OC(C)C)OC(C)C)NNc1ccc([N+](=O)[O-])cc1`, with above 100 µM; and `Cn1c2ccccc2c2cc(-c3ccccc3)c3c(c21)C(=O)c1ccccc1C3=O`, with 36.3 µM.

The test system of another assay is HCT-15 colon. Description: growth of human tumour cells (NCI), 48 h.
For `CCOC(=O)CC(=O)ON(C)C(C)=O`, the TGI was above 100 µM.
Same read-out and setting: then `CC(C)OP(=O)(OC(C)C)C(=NCCN=C(NNc1ccc([N+](=O)[O-])cc1)P(=O)(OC(C)C)OC(C)C)NNc1ccc([N+](=O)[O-])cc1`, with above 100 µM; and `CN(C)c1ccc(/C=C(\NC(=O)c2ccccc2)c2nc3ncncc3[nH]2)cc1`, with above 100 µM.

(Values after PubChem BioAssay (NCI).)
